Test results reported in patent publication US4147787A, “4,5,6,7-Tetrahydro-thieno[2,3-c]-and [3,2-c]-pyridines, and therapeutic compositions containing the same” (Parcor, priority 1977, dated 1979).

Tests used:
[1] = system: A.D.P. induced blood-platelet aggregation; assay: A.D.P. induced blood-platelet aggregation; type: in vivo, Wistar rats; settings: Rattus norvegicus, po; 100 mg/kg orally, rats, 3 hours after treatment, 10 μM A.D.P. solution; read-out: Percent inhibition of blood-platelet aggregation, A.D.P.
Description: (§1) A blood sample is taken from the jugular vein of Wistar rats. From this citrated blood and after centifugation, a plasma is reconstituted which contains 600,000 ± 20,000 blood-platelets per ml, which plasma is then used in all aggregation determinations.
(§2) 0.4 ml plasma is placed in a siliconized tube provided with a magnet bar, also siliconized. The tube is introduced into an aggregometer connected to an apparatus which records optical density variations. When light transmission has attained a stable value, 0.5 ml of a solution containing 10 μM A.D.P. (adenosinediphosphate) is added to the tube.
(§3) Blood-platelet aggregation induces an increase of light transmission, followed by a decrease subsequent to the deaggregation phase.
(§4) Different groups of 20 rats each are used, each group being orally administered 100 mg/kg of a test derivative.

[2] = system: Collagen-induced blood-platelet aggregation; assay: Collagen-induced blood-platelet aggregation; type: in vivo, Wistar rats; settings: Rattus norvegicus, po; 100 mg/kg orally, rats, 3 hours after treatment; read-out: Percent inhibition of blood-platelet aggregation, Collagen
Description: as §1, §2, §3
The A.D.P. solution is substituted with a collagen (bovine tendon extract) solution.
as §4

[3] = system: rat globules (red corpuscles); assay: In vitro anti-sludge activity, curative procedure (protamine sulfate); type: cell-based; settings: 25 μg
Description: (§5) Said activity was investigated in vitro and in vivo in rats.
(§6) Thrice washed rat globules are diluted to 1/250 in physiological saline. In each of 5 tubes are placed 0.6 ml of this suspension and 0.2 ml physiological saline. To each tube is then added 0-25-50-100 and 200 μg, respectively, of the test derivative contained in 0.2 ml solution. After incubation for one hour at 37° C., 0.2 ml of a solution containing 125 μg/ml protamine sulfate are added, after which the tube is then incubated again for 0.5 hour at 37° C. The globules of each tube are then examined with a Mallases cell, and the percent free globules and the percent aggregates formed by 2, 3, 4, 5 etc.. globules is then recorded.
The experiment was repeated according to a "curvative" procedure; the red corpuscles were first contacted with protamine sulfate and, after incubation for 0.5 hour, 0.2 ml containing 25 μg of test derivative were added thereto, which operation is followed by another incubation for one hour at 37° C. The results obtained are reported in Table III, in which the percent agglomerates as a function of size is indicated.

[4] = system: rat globules (red corpuscles); assay: In vitro anti-sludge activity, preventive treatment (protamine sulfate); type: cell-based
Description: as §5, §6

`O=C(O)C1Cc2sc(Cl)cc2CN1` (centres unmarked) [Example 4, 6-Carboxy-2-chloro-4,5,6,7-tetrahydro-thieno[3,2-c]pyridine] was tested, and the inhibition at 100 mg/kg [1] was 63.1% and the inhibition at 100 mg/kg [2] was 91.3%.
Work on `O=C(OCc1ccccc1)C1Cc2ccsc2CN1Cc1ccccc1` (centres unmarked) [Example 20, 5-Benzyloxycarbonyl-6-benzyl-4,5,6,7-tetrahydro-thieno[2,3-c]pyridine] yielded an inhibition at 100 mg/kg [1] of 60.4% and an inhibition at 100 mg/kg [2] of 91.5%.
`O=C(OCc1ccccc1Cl)[C@H]1[C@@H](O)c2sccc2CN1Cc1ccccc1Cl` (relative stereo) [Example 8, 5-o-Chlorobenzyl-6-o-chlorobenzyloxycarbonyl-7-hydroxy-4,5,6,7-tetrahydro-thieno[3,2-c]pyridine] showed an inhibition at 100 mg/kg [1] of 61.8% and an inhibition at 100 mg/kg [2] of 90.4%.
`O=C(OCc1ccc([N+](=O)[O-])cc1)C1Cc2sccc2CN1Cc1ccc([N+](=O)[O-])cc1` (centres unmarked) [Example 15, 5-p-Nitrobenzyl-6-p-nitrobenzyloxycarbonyl-4,5,6,7-tetrahydro-thieno[3,2-c]pyridine] was tested, and the “percent agglomerates, size 2” value [3] was 11%, the “percent agglomerates, size 3” value [3] was 2% and the “percent agglomerates, size 4” value [3] was 0%. For the same compound, the “percent agglomerates, size 5” value [3] was 0%, the “percent agglomerates, size 6” value [3] was 0% and the “percent agglomerates, size 7” value [3] was 0%. For the same compound, the “percent agglomerates, size 8” value [3] was 0%, the “percent agglomerates, size 9” value [3] was 0% and the “percent agglomerates, size 10” value [3] was 0%. For the same compound, the “percent free red corpuscles (size of agglomerates 1)” value (shortened to “percent free red corpuscles”) [3] was 87%.
Work on `O=C(OCc1ccccc1F)[C@H]1[C@@H](O)c2ccsc2CN1Cc1ccccc1F` (relative stereo) [Example 10, 4-Hydroxy-5-o-fluorobenzyloxycarbonyl-6-o-fluorobenzyl-4,5,6,7-tetrahydro-thieno[2,3-c]pyridine] yielded an inhibition at 100 mg/kg [1] of 62.2% and an inhibition at 100 mg/kg [2] of 92.1%.
In the case of `O=C(OCc1ccccc1)[C@H]1[C@@H](O)c2ccsc2CN1Cc1ccccc1` (relative stereo) [Example 11, 4-Hydroxy-5-benzyloxycarbonyl-6-benzyl-4,5,6,7-tetrahydro-thieno[2,3-c]pyridine], the inhibition at 100 mg/kg [1] is reported as 60.5% and the inhibition at 100 mg/kg [2] is reported as 91.6%.
`O=C(OCc1ccccc1)C1Cc2sccc2CN1Cc1ccccc1` (centres unmarked) [Example 12, 5-Benzyl-6-benzyloxycarbonyl-4,5,6,7-tetrahydro-thieno[3,2-c]pyridine] gave an inhibition at 100 mg/kg [1] of 61.6% and an inhibition at 100 mg/kg [2] of 90.8%.
`CCOC(=O)C1Cc2sc(Cl)cc2CN1Cc1ccccc1` (centres unmarked) [Example 27, 2-Chloro-5-benzyl-6-ethoxycarbonyl-4,5,6,7-tetrahydro-thieno[3,2-c]pyridine] was tested, and the “percent agglomerates, size 2” value ([4]; 25 μg) was 16%, the “percent agglomerates, size 3” value ([4]; 25 μg) was 17% and the “percent agglomerates, size 4” value ([4]; 25 μg) was 5%. The “percent agglomerates, size 5” value ([4]; 25 μg) was 0%, the “percent agglomerates, size 6” value ([4]; 25 μg) was 0% and the “percent agglomerates, size 7” value ([4]; 25 μg) was 0%. The “percent agglomerates, size 8” value ([4]; 25 μg) was 0%, the “percent agglomerates, size 9” value ([4]; 25 μg) was 0% and the “percent agglomerates, size 10” value ([4]; 25 μg) was 0%. The “percent agglomerates, size 11” value ([4]; 25 μg) was 0%, the “percent agglomerates, size 12” value ([4]; 25 μg) was 0% and the “percent agglomerates, size 13” value ([4]; 25 μg) was 0%. The “percent free red corpuscles” value ([4]; 25 μg) was 62%, the “percent agglomerates, size 2” value ([4]; 50 μg) was 20% and the “percent agglomerates, size 3” value ([4]; 50 μg) was 10%. The “percent agglomerates, size 4” value ([4]; 50 μg) was 4%, the “percent agglomerates, size 5” value ([4]; 50 μg) was 0% and the “percent agglomerates, size 6” value ([4]; 50 μg) was 0%. The “percent agglomerates, size 7” value ([4]; 50 μg) was 0%, the “percent agglomerates, size 8” value ([4]; 50 μg) was 0% and the “percent agglomerates, size 9” value ([4]; 50 μg) was 0%. The “percent agglomerates, size 10” value ([4]; 50 μg) was 0%, the “percent agglomerates, size 11” value ([4]; 50 μg) was 0% and the “percent agglomerates, size 12” value ([4]; 50 μg) was 0%. The “percent agglomerates, size 13” value ([4]; 50 μg) was 0%, the “percent free red corpuscles” value ([4]; 50 μg) was 66% and the “percent agglomerates, size 2” value ([4]; 100 μg) was 15%. The “percent agglomerates, size 3” value ([4]; 100 μg) was 7%, the “percent agglomerates, size 4” value ([4]; 100 μg) was 3% and the “percent agglomerates, size 5” value ([4]; 100 μg) was 0%. The “percent agglomerates, size 6” value ([4]; 100 μg) was 0%, the “percent agglomerates, size 7” value ([4]; 100 μg) was 0% and the “percent agglomerates, size 8” value ([4]; 100 μg) was 0%. The “percent agglomerates, size 9” value ([4]; 100 μg) was 0%, the “percent agglomerates, size 10” value ([4]; 100 μg) was 0% and the “percent agglomerates, size 11” value ([4]; 100 μg) was 0%. The “percent agglomerates, size 12” value ([4]; 100 μg) was 0%, the “percent agglomerates, size 13” value ([4]; 100 μg) was 0% and the “percent free red corpuscles” value ([4]; 100 μg) was 75%. For the same compound, the “percent agglomerates, size 2” value ([4]; 200 μg) was 9%, the “percent agglomerates, size 3” value ([4]; 200 μg) was 5% and the “percent agglomerates, size 4” value ([4]; 200 μg) was 2%. For the same compound, the “percent agglomerates, size 5” value ([4]; 200 μg) was 0%, the “percent agglomerates, size 6” value ([4]; 200 μg) was 0% and the “percent agglomerates, size 7” value ([4]; 200 μg) was 0%. For the same compound, the “percent agglomerates, size 8” value ([4]; 200 μg) was 0%, the “percent agglomerates, size 9” value ([4]; 200 μg) was 0% and the “percent agglomerates, size 10” value ([4]; 200 μg) was 0%. The “percent agglomerates, size 11” value ([4]; 200 μg) was 0%, the “percent agglomerates, size 12” value ([4]; 200 μg) was 0% and the “percent agglomerates, size 13” value ([4]; 200 μg) was 0%. The “percent free red corpuscles” value ([4]; 200 μg) was 84%, the “percent agglomerates, size 2” value [3] was 10% and the “percent agglomerates, size 3” value [3] was 3%. For the same compound, the “percent agglomerates, size 4” value [3] was 0%, the “percent agglomerates, size 5” value [3] was 0% and the “percent agglomerates, size 6” value [3] was 0%. For the same compound, the “percent agglomerates, size 7” value [3] was 0%, the “percent agglomerates, size 8” value [3] was 0% and the “percent agglomerates, size 9” value [3] was 0%. The “percent agglomerates, size 10” value [3] was 0% and the “percent free red corpuscles” value [3] was 87%.
In the case of `O=C(OCc1ccccc1)[C@H]1[C@@H](O)c2sccc2CN1Cc1ccccc1` (relative stereo) [Example 7, 5-Benzyl-6-benzyloxycarbonyl-7-hydroxy-4,5,6,7-tetrahydro-thieno[3,2-c]pyridine], the “percent agglomerates, size 2” value [3] is reported as 12%, the “percent agglomerates, size 3” value [3] is reported as 3% and the “percent agglomerates, size 4” value [3] is reported as 1%. The “percent agglomerates, size 5” value [3] was 0%, the “percent agglomerates, size 6” value [3] was 0% and the “percent agglomerates, size 7” value [3] was 0%. For the same compound, the “percent agglomerates, size 8” value [3] was 0%, the “percent agglomerates, size 9” value [3] was 0% and the “percent agglomerates, size 10” value [3] was 0%. For the same compound, the “percent free red corpuscles” value [3] was 84%.
`O=C(O)C1Cc2sc(Cl)cc2CN1Cc1ccccc1` (centres unmarked) [Example 26, 5-Benzyl-6-carboxy-2-chloro-4,5,6,7-tetrahydro-thieno[3,2-c]pyridine] was tested, and the “percent agglomerates, size 2” value [3] was 12%, the “percent agglomerates, size 3” value [3] was 2% and the “percent agglomerates, size 4” value [3] was 0%. For the same compound, the “percent agglomerates, size 5” value [3] was 0%, the “percent agglomerates, size 6” value [3] was 0% and the “percent agglomerates, size 7” value [3] was 0%. For the same compound, the “percent agglomerates, size 8” value [3] was 0%, the “percent agglomerates, size 9” value [3] was 0% and the “percent agglomerates, size 10” value [3] was 0%. The “percent free red corpuscles” value [3] was 86%.
